Earlier results in patent publication US6433221B1 (RPC Inc., priority 1998, dated 2002).
Read-outs that look alike come from different tables or passages of the source.

Experiments:
[1] = cyclohexanone in water; for mol % H2O: balance
[2] = water in cyclohexanone; for mol % CHxO: balance

## O=C1CCCCC1 [Cyclohexanone]
[1]; 20 °C
  mol % CHxO: 1.98% mol %
  wt % CHxO: 10.00% wt %
  mol % H2O: 98.02% mol %
[1]; 25 °C
  mol % CHxO: 1.85% mol %
  wt % CHxO: 9.39% wt %
  mol % H2O: 98.15% mol %
[1]; 30 °C
  mol % CHxO: 1.73% mol %
  wt % CHxO: 8.83% wt %
  mol % H2O: 98.27% mol %
[1]; 50 °C
  mol % CHxO: 1.43% mol %
  wt % CHxO: 7.39% wt %
  mol % H2O: 98.57% mol %
[1]; 70 °C
  mol % CHxO: 1.34% mol %
  wt % CHxO: 6.95% wt %
  mol % H2O: 98.66% mol %
[1]; 90 °C
  mol % CHxO: 1.44% mol %
  wt % CHxO: 7.44% wt %
  mol % H2O: 98.56% mol %

## O [Water]
[2]; 20 °C
  mol % H2O: 25.1% mol %
  wt % H2O: 5.7% wt %
  mol % CHxO: 74.9% mol %
[2]; 20 °C, listed as water
  wt % H2O: 5.7 wt %
[2]; 25 °C
  mol % H2O: 25.6% mol %
  wt % H2O: 5.9% wt %
  mol % CHxO: 74.4% mol %
[2]; 30 °C
  mol % H2O: 26.1% mol %
  wt % H2O: 6.0% wt %
  mol % CHxO: 73.9% mol %
[2]; 50 °C
  mol % H2O: 28.7% mol %
  wt % H2O: 6.8% wt %
  mol % CHxO: 71.3% mol %
[2]; 70 °C
  mol % H2O: 32.6% mol %
  wt % H2O: 8.1% wt %
  mol % CHxO: 67.4% mol %
[2]; 90 °C
  mol % H2O: 38.5% mol %
  wt % H2O: 10.2% wt %
  mol % CHxO: 61.5% mol %
